Experimental data from patent publication US11376269B2, “Pharmaceutical compositions for the treatment of chemoresistant acute myeloid leukemia (AML)” (INSERM (INSTITUT NATIONAL DE LA SANTÉ ET DE LA RECHERCHE …, priority 2016, dated 2022).

Experiments:
MOLM14 cells = assay: Cell viability of MOLM14 cells, AnnexinV/7AAD-based flow cytometry assay; set-up: species or system human
Experimental: (§1) FIG. 3. In vitro study of the CD39 protein expression in MOLM14 AML cells after cytarabine (AraC) treatment in normoxia (21%) and hypoxia (1%). (A) Western analysis of the expression of HIF-1alpha, VDAC, CD39, P2Y13, pATF2 and HSP90 (as loading control) in MOLM14 cells after normoxia (21% O2) or hypoxia (1% O2) for 24 h, 48 h or 72 h. Each lane contained 30 μg of protein. (B-C-D) MOLM14 cells were treated with AraC (2 μM, IC50 in normoxia) for 48 h either in normoxia (21% O2) or hypoxia (1% O2). Flow cytometric analyses were perform to assess cell viability (B), CD39^+ expression (C-D). The results are representative of at least three independent experiments. The ATPase activity of CD39 in MOLM14 cells after Ara-C treatment was assessed and the concentration of non-hydrolyzed extracellular ATP was determined using the ATPlite assay (PerkinElmer) (E).
(§2) FIG. 4. In vitro potentiatingeffect of ARL67156 (CD39 inhibitor) with cytarabine (AraC) in MOLM14 cell line. (A-B) MOLM14 cells were either treated or not with 2 μM Ara-C, 100 μmol/L ARL or 250 μmol/L of another CD39 inhibitor, POM-1, for 48 h. Cell viability was assessed using AnnexinV/7AAD-based flow cytometry assay. (C) U937 AML cell line was either treated or not with 0.5 μM Ara-C or 100 μmol/L ARL. The percent of viable cells was analyzed using AnnexinV/7AAD-based flow cytometry assay.
(§3) In vitro potentiating effect of CD39 inhibitor with cytarabine in MOLM14 cell line. In order to explore the effect of CD39 onto the chemoresistance to AraC in AML cell lines in vitro, we first tested the consequence of CD39 inhibition using an ecto-ATPase inhibitor ARL67156. […] High ADP and/or P2YR13 activation might be involved into this compensatory and protective mechanism.

U937 AML cell line = assay: Cell viability of U937 AML cell line, AnnexinV/7AAD-based flow cytometry assay; set-up: species or system human; details: U937, 0.5 μM Ara-C, 100 μmol/L ARL
Experimental: as §2, §3

[1] = test system: primary AML cells from patients; assay: NSG mice xenografted with primary AML cells from patients (PDX), flow cytometry of residual cells; type: in vivo
Experimental: FIG. 2. Validation of the increase in CD39 after cytarabine (AraC) in 9 patient-derived xenografts, 45 AML patients and 2 cell line-derived xenografts. (A) The total number of human AML cells expressing CD45, CD33 and CD44 in 9 patient-derived xenograft (PDX) was analyzed and quantified using flow cytometry in AraC-treated xenografted mice compared to PBS-treated xenografted mice in bone marrow and spleen. (B) Flow cytometric analysis of the percent of CD34^+CD38^− immature cell population was performed in human viable residual CD45^+CD33^+ AML cells from AraC-treated xenografted mice compared to PBS-treated xenografted mice in bone marrow. (C) The percent of CD39^+ cells in the bulk population and CD34^+CD38^− immature cell population of human viable residual CD45^+CD33^+ AML cells was assessed in AraC-treated xenografted mice compared to PBS-treated xenografted mice in bone marrow by flow cytometry. (D-E-F) Similarly, flow cytometric analyses of 45 AML patients in peripheral blood at D35 (post-chemotherapy) and diagnosis to assess the percentage of blasts (D), of CD34^+CD38^− immature cells (E), and of CD39^+ residual cells in both total blasts (bulk) and CD34^+CD38^− population (F). (G-H) Flow cytometry analysis of 1 resistant cell line (MOLM14) and 1 sensitive cell line (U937)-derived xenograft (CLDX) to assess the total cell tumor burden of human viable AML cells in AraC- and PBS-treated CLDX (G), the percent of CD39^+ cells (H).
Until recently, mouse models of AML have been extensively used to characterize the nature and origin of LSCs (in part by our group: Sanchez et al. 2009. Sarry et al. 2011), but less frequently used to study their chemoresistance and miminum residual disease in vivo, an approach that is crucial to improve therapeutic outcome of AML patients. Thus, we tested and established an appropriate dose and regimen for use of AraC as baseline cytotoxic in our NSG mice xenografted with primary AML cells from patients seen at diagnosis or relapse of disease. We have access to a large resource of primary samples through our Biobank of the Hematology Clinical Department of the Oncopole Hospital in Toulouse (HIMIP, INSERM-U1037, ˜150 patients newly diagnosed/year) and in collaboration with Drs Gwen Danet-Desnoyers and Martin Carroll (University of Pennsylvania, Pa., USA). Then, we analyzed human AML cells surviving after AraC treatment over time. […] CANCER DISCOVERY. 2017).
Based on this model and the current hypothesis that AraC-resistant cells are rare, replicatively dormant and well adapted to hypoxic conditions (Ishikawa et al. 2007; Raaijmakers, 2011; Wilson and Hay, 2011), we have further analyzed all of these characteristics in AraC-treated patient-xenografted mice. We have first confirmed that CD34^+CD38^− cell population is increased post-AraC chemotherapy in residual AML cells. […] Finally, we have identified a signature of 15 genes (amongst of 350 genes, including CD39/ENTPD1 and P2Y13), that are the most differentially expressed in all of the three AML patient-derived xenografts after AraC treatment as compared to control samples using our in vivo PDX models coupled to a gene expression analysis (FIG. 1a).
Validation of the increase in CD39 expression in 9 patient-derived xenograft (PDX) models treated with cytarabine and in 45 AML patients at D35 compared to diagnosis. We first examined the effect of AraC on CD39 expression in residual viable AML cells from our NSG model xenografted with primary AML cells from 9 patients (FIG. 2a). […] Then, we analyzed CD39 expression in two AML cell line-derived xenografts, which confirmed our previous results in patients and PDXs.

U937 = U937 (sensitive) cell line-derived xenograft (CLDX); type: in vivo, mice
Experimental: (§4) FIG. 2. Validation of the increase in CD39 after cytarabine (AraC) in 9 patient-derived xenografts, 45 AML patients and 2 cell line-derived xenografts. (A) The total number of human AML cells expressing CD45, CD33 and CD44 in 9 patient-derived xenograft (PDX) was analyzed and quantified using flow cytometry in AraC-treated xenografted mice compared to PBS-treated xenografted mice in bone marrow and spleen. (B) Flow cytometric analysis of the percent of CD34^+CD38^− immature cell population was performed in human viable residual CD45^+CD33^+ AML cells from AraC-treated xenografted mice compared to PBS-treated xenografted mice in bone marrow. (C) The percent of CD39^+ cells in the bulk population and CD34^+CD38^− immature cell population of human viable residual CD45^+CD33^+ AML cells was assessed in AraC-treated xenografted mice compared to PBS-treated xenografted mice in bone marrow by flow cytometry. […]
(§5) Validation of the increase in CD39 expression in 9 patient-derived xenograft (PDX) models treated with cytarabine and in 45 AML patients at D35 compared to diagnosis. […] Then, we analyzed CD39 expression in two AML cell line-derived xenografts, which confirmed our previous results in patients and PDXs.

CD39 [2] = assay: CD39 expression in MOLM14 cells after AraC in normoxia and hypoxia, flow cytometry; type: cell-based, human; details: MOLM14, AraC 2 μM, 48 h, normoxic and hypoxic conditions
Experimental: as §1, with “(B-C-D) MOLM14 cells were treated with AraC (2 μM, IC50 in normoxia) for 48 h either in normoxia (21% O2) or hypoxia (1% O2).” left out, “The results are representative of at least three independent experiments.” left out
(§6) Then, we have established an AML cell line model to further study this mechanism. Using MOLM14 AML cell lines and hypoxic condition (1% versus 21% O2), we have analyzed the CD39 expression and ATP-hydrolyzing activity (FIG. 3).

CD39 [3] = assay: ATPase activity of CD39 in MOLM14 cells, non-hydrolyzed extracellular ATP by ATPlite assay; type: cell-based, human; details: MOLM14 after AraC, normoxic and hypoxic conditions
Experimental: as §1, with “(B-C-D) MOLM14 cells were treated with AraC (2 μM, IC50 in normoxia) for 48 h either in normoxia (21% O2) or hypoxia (1% O2).” left out, “The results are representative of at least three independent experiments.” left out
as §6

AML blasts = assay: Flow cytometry of peripheral blood of 45 AML patients at D35 post-chemotherapy versus diagnosis; type: in vivo, human; details: day 35 post-AraC versus diagnosis
Experimental: as §4, §5

[4] = AraC-treated patient-xenografted mice

Structure (SMILES) | induction of cell death alone (MOLM14 cells; MOLM14, 100 μmol/L ARL, 48 h, in absence of AraC) | potentiating effect with AraC on cell death (MOLM14 cells; MOLM14, with 2 μM Ara-C, 100 μmol/L ARL or 250 μmol/L POM-1, 48 h) | potentiation of the effect of AraC in inducing cell death (U937 AML cell line) | IC50 (MOLM14 cells; Homo sapiens, MOLM-14, MOLM14 cells, normoxia (21% O2)) [nM] | total cell tumor burden in bone marrow and spleen ([1]; 9 PDX, AraC-treated versus PBS-treated mice) | percent of CD39 cells in bulk and immature CD34+CD38− population ([1]; 9 PDX, AraC-treated versus control mice) | CD34+CD38− population in residual AML cells ([1]; 9 PDX, post-AraC, bone marrow) | killing of cycling and quiescent cells and LSCs in vivo [1, 4] | type of cell death induced in vivo [1, 4] | peripheral engraftment and total cell tumor burden ([1]; all patients tested, PDX in NSG mice) | duration of response ([1]; variable from patient to patient, PDX in NSG mice) | total cell tumor burden in bone marrow and spleen (U937) | CD39 expression (U937; post-AraC versus vehicle) | percent and expression of CD39 in residual viable cells (CD39 [2]) | remaining ATP (ATP-hydrolyzing activity of CD39) (CD39 [3]) | CD34+CD38− population and CD39 cells in residual bulk and immature populations (AML blasts)
CCN(CC)c1ncnc2c1ncn2[C@@H]1O[C@H](COP(=O)(O)OP(=O)(O)C(Br)(Br)P(=O)(O)O)[C@@H](O)[C@H]1O [ARL67156] | did not induce cell death alone | potentiatingeffect | did not potentiate the effect of AraC in inducing cell death | – | – | – | – | – | – | – | – | – | – | – | – | –
Nc1ccn([C@@H]2O[C@H](CO)[C@@H](O)[C@@H]2O)c(=O)n1 [AraC, cytarabine] | – | – | – | 2000 | significant cytoreduction | increase in percent of CD39 cells | increase | equally kills both cycling and quiescent cells as well as LSCs in vivo | ROS-/MMP-dependent apoptotic cell death | significant cytoreduction | 2-7 weeks | significant cytoreduction | increases | increased the percent and expression of CD39 | significant decrease | increase
